In patent publication US9938261B2, “Heterocyclic compounds and methods of use thereof” (AMBIT BIOSCIENCES CORPORATION, priority 2011, dated 2018):
Where two headings read alike, the source gives them in different places.

How the values were obtained:
[1] = target: T1, PDGFRβ (Homo sapiens, UniProt P09619); assay: Competition binding assay, PDGFRβ Kd
T1 construct: made in house
Outline: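 Compound displacement of kinase from bead-immobilized ligand is measured by qPCR after 1 h equilibration at room temperature. Kinases are T7 phage fusions or DNA-tagged HEK-293 products.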

[2] = target: CSF1R (Homo sapiens, UniProt P07333); assay: HEK293 CSF1R phosphorylation MSD assay; type: cell-based; design: expressed in transfected cells; host or cells: HEK293; settings: read-out: HEK293 pCSF1R M-CSF MSD:IC50
Outline: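 HEK293 cells expressing CSF1R-FKBP were pretreated 2 h at 37° C with 9 half-log concentrations of compound (0.5% DMSO final), then stimulated 5 min with 50 ng/mL human M-CSF. Lysates captured on biotin-FK506 plates; phosphotyrosine detected by MSD electrochemiluminescence. IC50 versus DMSO, averaged from duplicate plates.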

[3] = 2 h compound, human M-CSF 50 ng/mL for 5 min
[4] = HEK293 cells, M-CSF stimulated CSF1R phosphorylation, MSD

T1 sequence (P09619 33-1106): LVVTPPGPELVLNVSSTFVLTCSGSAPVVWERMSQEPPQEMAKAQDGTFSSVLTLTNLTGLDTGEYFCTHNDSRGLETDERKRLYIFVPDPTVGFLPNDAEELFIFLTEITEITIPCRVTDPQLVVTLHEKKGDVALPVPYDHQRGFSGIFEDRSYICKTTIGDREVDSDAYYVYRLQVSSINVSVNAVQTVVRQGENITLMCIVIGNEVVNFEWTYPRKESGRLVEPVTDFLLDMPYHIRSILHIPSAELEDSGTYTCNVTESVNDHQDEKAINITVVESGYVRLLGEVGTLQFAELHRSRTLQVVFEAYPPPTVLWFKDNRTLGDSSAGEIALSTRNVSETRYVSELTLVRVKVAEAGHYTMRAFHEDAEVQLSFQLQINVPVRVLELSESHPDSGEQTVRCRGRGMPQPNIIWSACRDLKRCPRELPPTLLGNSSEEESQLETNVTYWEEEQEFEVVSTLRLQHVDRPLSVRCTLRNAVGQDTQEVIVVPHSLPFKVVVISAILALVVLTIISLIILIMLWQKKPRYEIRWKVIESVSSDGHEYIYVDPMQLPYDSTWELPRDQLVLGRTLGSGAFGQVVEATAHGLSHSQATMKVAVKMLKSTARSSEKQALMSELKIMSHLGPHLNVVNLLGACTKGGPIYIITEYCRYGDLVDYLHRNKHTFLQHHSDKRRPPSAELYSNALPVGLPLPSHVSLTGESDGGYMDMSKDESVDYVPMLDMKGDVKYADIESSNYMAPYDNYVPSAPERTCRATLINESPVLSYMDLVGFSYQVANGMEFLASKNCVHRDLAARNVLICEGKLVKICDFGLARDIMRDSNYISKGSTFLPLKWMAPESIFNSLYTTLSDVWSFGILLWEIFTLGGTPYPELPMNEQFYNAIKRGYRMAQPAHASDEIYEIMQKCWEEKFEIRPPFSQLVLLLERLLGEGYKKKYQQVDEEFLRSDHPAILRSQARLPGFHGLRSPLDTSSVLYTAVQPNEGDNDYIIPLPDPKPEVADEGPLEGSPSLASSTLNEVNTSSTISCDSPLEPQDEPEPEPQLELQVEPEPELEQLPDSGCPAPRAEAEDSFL
Sequence of CSF1R (P07333 20-972): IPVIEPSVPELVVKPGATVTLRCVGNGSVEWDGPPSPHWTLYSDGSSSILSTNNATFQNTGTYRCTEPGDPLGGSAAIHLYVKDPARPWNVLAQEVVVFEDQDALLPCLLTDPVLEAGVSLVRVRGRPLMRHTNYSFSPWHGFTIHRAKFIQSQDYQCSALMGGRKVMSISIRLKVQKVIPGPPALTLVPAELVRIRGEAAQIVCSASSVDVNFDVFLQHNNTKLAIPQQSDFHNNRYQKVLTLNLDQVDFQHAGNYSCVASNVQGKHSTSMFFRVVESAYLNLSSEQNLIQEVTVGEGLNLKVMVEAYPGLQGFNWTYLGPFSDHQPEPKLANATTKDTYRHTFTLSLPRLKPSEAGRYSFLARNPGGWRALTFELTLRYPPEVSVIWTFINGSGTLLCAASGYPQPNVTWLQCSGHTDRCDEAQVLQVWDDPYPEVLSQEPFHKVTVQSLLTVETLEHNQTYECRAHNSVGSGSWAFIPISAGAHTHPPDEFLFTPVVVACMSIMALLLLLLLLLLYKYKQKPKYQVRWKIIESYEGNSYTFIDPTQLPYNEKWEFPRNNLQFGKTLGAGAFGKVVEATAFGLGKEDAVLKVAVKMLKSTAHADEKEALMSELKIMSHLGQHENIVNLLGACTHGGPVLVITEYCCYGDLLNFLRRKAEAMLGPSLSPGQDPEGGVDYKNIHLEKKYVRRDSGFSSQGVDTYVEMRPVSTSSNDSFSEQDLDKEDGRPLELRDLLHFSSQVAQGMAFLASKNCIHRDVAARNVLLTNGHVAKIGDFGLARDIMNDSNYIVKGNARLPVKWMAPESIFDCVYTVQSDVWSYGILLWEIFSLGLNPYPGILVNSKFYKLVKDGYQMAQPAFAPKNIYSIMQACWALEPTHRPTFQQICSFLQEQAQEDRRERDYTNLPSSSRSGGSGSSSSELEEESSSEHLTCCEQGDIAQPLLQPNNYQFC

Row | SMILES | Kd [1] [nM] | IC50 [2, 3] [nM] | Kd ([1]; competition binding) [nM] | IC50 [2, 4] [nM]
1 | N#Cc1ccc2ncn(Cc3ccc4nc(N[C@@H]5CCCC[C@H]5O)sc4c3)c2n1 [Example 87, 3-((2-(((1R,2R)-2-hydroxycyclohexyl)amino)benzo[d]thiazol-6-yl)methyl)-3H-imidazo[4,5-b]pyridine-5-carbonitrile] | ≤ 50 | ≤ 50 |  | 
2 | C#Cc1cnc2c(c1)ncn2Cc1ccc2nc(N[C@@H]3CCCC[C@H]3O)sc2c1 [Example 96, (1R,2R)-2-((6-((6-ethynyl-3H-imidazo[4,5-b]pyridin-3-yl)methyl)benzo[d]thiazol-2-yl)amino)cyclohexanol] | ≤ 50 | ≤ 50 |  | 
3 | O[C@@H]1CCCC[C@H]1Nc1nc2ccc(Cn3cnc4cc(N5CCOCC5)cnc43)cc2s1 [Example 97, (1R,2R)-2-((6-((6-morpholino-3H-imidazo[4,5-b]pyridin-3-yl)methyl)benzo[d]thiazol-2-yl)amino)cyclohexanol] | ≤ 50 | ≤ 50 |  | 
4 | C=Cc1cnc2c(c1)ncn2Cc1ccc2nc(N[C@@H]3CCCC[C@H]3O)sc2c1 [Example 98, (1R,2R)-2-((6-((6-vinyl-3H-imidazo[4,5-b]pyridin-3-yl)methyl)benzo[d]thiazol-2-yl)amino)cyclohexanol] | ≤ 50 | ≤ 50 |  | 
5 | CC(=O)NCc1cnc2c(c1)ncn2Cc1ccc2nc(N[C@@H]3CCCC[C@H]3O)sc2c1 [Example 99, N-((3-((2-(((1R,2R)-2-hydroxycyclohexyl)amino)benzo[d]thiazol-6-yl)methyl)-3H-imidazo[4,5-b]pyridin-6-yl)methyl)acetamide] | 500 to 2000 | 200 to 500 |  | 
6 | O[C@@H]1CCCC[C@H]1Nc1nc2ccc(Cn3cnc4cc(Br)ccc43)cc2s1 [Example 100, (1R,2R)-2-((6-((5-bromo-1H-benzo[d]imidazol-1-yl)methyl)benzo[d]thiazol-2-yl)amino)cyclohexanol] | 50 to 500 | 50 to 200 |  | 
7 | CC(=O)Nc1cn(Cc2ccc3nc(N[C@@H]4CCCC[C@H]4O)sc3c2)cn1 [Example 101, N-(1-((2-(((1R,2R)-2-hydroxycyclohexyl)amino)benzo[d]thiazol-6-yl)methyl)-1H-imidazol-4-yl)acetamide] | 50 to 500 | 50 to 200 |  | 
8 | CCc1cnc2c(c1)ncn2Cc1ccc2nc(N[C@@H]3CCCC[C@H]3O)sc2c1 [Example 102, (1R,2R)-2-((6-((6-ethyl-3H-imidazo[4,5-b]pyridin-3-yl)methyl)benzo[d]thiazol-2-yl)amino)cyclohexanol] | ≤ 50 | ≤ 50 |  | 
9 | CS(=O)(=O)c1ccc2ncn(Cc3ccc4nc(N[C@@H]5CCCC[C@H]5O)sc4c3)c2n1 [Example 106, (1R,2R)-2-((6-((5-(methylsulfonyl)-3H-imidazo[4,5-b]pyridin-3-yl)methyl)benzo[d]thiazol-2-yl)amino)cyclohexanol] |  |  | 500 to 2000 | > 500
10 | O[C@@H]1CCCC[C@H]1Nc1nc2ccc(Cn3cnc4ccc(Br)cc43)cc2s1 [Example 107, (1R,2R)-2-((6-((6-bromo-1H-benzo[d]imidazol-1-yl)methyl)benzo[d]thiazol-2-yl)amino)cyclohexanol] |  |  | 50 to 500 | 50 to 200
11 | N#CCOc1ccc2c(c1)ncn2Cc1ccc2nc(N[C@@H]3CCCC[C@H]3O)sc2c1 [Example 196, 2-((1-((2-(((1R,2R)-2-hydroxycyclohexyl)amino)benzo[d]thiazol-6-yl)methyl)-1H-benzo[d]imidazol-5-yl)oxy)acetonitrile] |  |  | 50 to 500 | ≤ 50
12 | Fc1cnc2c(c1)ncn2Cc1ccc2nc(N[C@@H]3CCCC[C@H]3Cl)sc2c1 [Example 198, N-((1R,2R)-2-chlorocyclohexyl)-6-((6-fluoro-3H-imidazo[4,5-b]pyridin-3-yl)methyl)benzo[d]thiazol-2-amine] |  |  | ≤ 50 | 200 to 500
13 | OC1CCN(c2ccn3c(Cc4ccc5nc(N[C@@H]6CCCC[C@H]6O)sc5c4)cnc3c2)CC1 [Example 199, 1-(3-((2-(((1R,2R)-2-hydroxycyclohexyl)amino)benzo[d]thiazol-6-yl)methyl)imidazo[1,2-a]pyridin-7-yl)piperidin-4-ol] |  |  | > 2000 | 200 to 500
14 | CC(=O)c1ccn2c(Cc3ccc4nc(N[C@@H]5CCCC[C@H]5O)sc4c3)cnc2c1 [Example 200, 1-(3-((2-(((1R,2R)-2-hydroxycyclohexyl)amino)benzo[d]thiazol-6-yl)methyl)imidazo[1,2-a]pyridin-7-yl)ethanone] |  |  | 50 to 500 | 50 to 200
15 | CC(O)c1ccn2c(Cc3ccc4nc(N[C@@H]5CCCC[C@H]5O)sc4c3)cnc2c1 (stereo partly drawn) [Example 201, (1R,2R)-2-((6-((7-(1-hydroxyethyl)imidazo[1,2-a]pyridin-3-yl)methyl)benzo[d]thiazol-2-yl)amino)cyclohexanol] |  |  | 500 to 2000 | 200 to 500
16 | CC(=NO)c1ccn2c(Cc3ccc4nc(N[C@@H]5CCCC[C@H]5O)sc4c3)cnc2c1 [Example 202, 1-(3-((2-(((1R,2R)-2-hydroxycyclohexyl)amino)benzo[d]thiazol-6-yl)methyl)imidazo[1,2-a]pyridin-7-yl)ethanone oxime] |  |  | 50 to 500 | 50 to 200
17 | O[C@@H]1CCCC[C@H]1Nc1nc2ccc(Cn3cnc4cc(Br)cc(F)c43)cc2s1 [Example 203, (1R,2R)-2-((6-((5-bromo-7-fluoro-1H-benzo[d]imidazol-1-yl)methyl)benzo[d]thiazol-2-yl)amino)cyclohexanol] |  |  | 50 to 500 | 50 to 200
18 | CON=C(C)c1ccn2c(Cc3ccc4nc(N[C@@H]5CCCC[C@H]5O)sc4c3)cnc2c1 [Example 204, 1-(3-((2-(((1R,2R)-2-hydroxycyclohexyl)amino)benzo[d]thiazol-6-yl)methyl)imidazo[1,2-a]pyridin-7-yl)ethanone O-methyl oxime] |  |  | 50 to 500 | 50 to 200
19 | O[C@@H]1CCCC[C@H]1Nc1nc2ccc(Cc3cnc4[nH]c5ccccc5n34)cc2s1 [Example 205, (1R,2R)-2-((6-((9H-benzo[d]imidazo[1,2-a]imidazol-3-yl)methyl)benzo[d]thiazol-2-yl)amino)cyclohexanol] |  |  | 50 to 500 | > 500
20 | N#Cc1cc(F)c2c(c1)ncn2Cc1ccc2nc(N[C@@H]3CCCC[C@H]3O)sc2c1 [Example 206, 7-fluoro-1-((2-(((1R,2R)-2-hydroxycyclohexyl)amino)benzo[d]thiazol-6-yl)methyl)-1H-benzo[d]imidazole-5-carbonitrile] |  |  | 50 to 500 | 50 to 200
21 | C=Cc1cc(F)c2c(c1)ncn2Cc1ccc2nc(N[C@@H]3CCCC[C@H]3O)sc2c1 [Example 207, (1R,2R)-2-((6-((7-fluoro-5-vinyl-1H-benzo[d]imidazol-1-yl)methyl)benzo[d]thiazol-2-yl)amino)cyclohexanol] |  |  | ≤ 50 | 50 to 200
22 | O[C@@H]1CCCC[C@H]1Nc1nc2ccc(Cn3cnc4cc(C5=CCOCC5)cc(F)c43)cc2s1 [Example 208, (1R,2R)-2-((6-((5-(3,6-dihydro-2H-pyran-4-yl)-7-fluoro-1H-benzo[d]imidazol-1-yl)methyl)benzo[d]thiazol-2-yl)amino)cyclohexanol] |  |  | ≤ 50 | 50 to 200
23 | O[C@@H]1CCCC[C@H]1Nc1nc2ccc(Cn3cnc4cc(N5CCOCC5)ccc43)cc2s1 [Example 209, (1R,2R)-2-((6-((5-morpholino-1H-benzo[d]imidazol-1-yl)methyl)benzo[d]thiazol-2-yl)amino)cyclohexanol] |  |  | 50 to 500 | 50 to 200
24 | O=C1CCCCN1c1ccc2c(c1)ncn2Cc1ccc2nc(N[C@@H]3CCCC[C@H]3O)sc2c1 [Example 210, 1-(1-((2-(((1R,2R)-2-hydroxycyclohexyl)amino)benzo[d]thiazol-6-yl)methyl)-1H-benzo[d]imidazol-5-yl)piperidin-2-one] |  |  | 500 to 2000 | 200 to 500
25 | O[C@@H]1CCCC[C@H]1Nc1nc2ccc(Cn3cnc4cc(-c5cc[nH]n5)ccc43)cc2s1 [Example 211, (1R,2R)-2-((6-((5-(1H-pyrazol-3-yl)-1H-benzo[d]imidazol-1-yl)methyl)benzo[d]thiazol-2-yl)amino)cyclohexanol] |  |  | ≤ 50 | ≤ 50
26 | O[C@@H]1CCCC[C@H]1Nc1nc2ccc(Cn3cnc4cc(C(F)(F)F)cnc43)cc2s1 [Example 212, (1R,2R)-2-((6-((6-(trifluoromethyl)-3H-imidazo[4,5-b]pyridin-3-yl)methyl)benzo[d]thiazol-2-yl)amino)cyclohexanol] |  |  | ≤ 50 | 50 to 200
27 | O[C@@H]1CCCC[C@H]1Nc1nc2ccc(Cc3cnc4cc(-n5ccnc5)ccn34)cc2s1 [Example 214, (1R,2R)-2-((6-((7-(1H-imidazol-1-yl)imidazo[1,2-a]pyridin-3-yl)methyl)benzo[d]thiazol-2-yl)amino)cyclohexanol] |  |  | 50 to 500 | ≤ 50
28 | O[C@@H]1CCCC[C@H]1Nc1nc2ccc(Cc3cnc4cc(-n5nccn5)ccn34)cc2s1 [Example 215, (1R,2R)-2-((6-((7-(2H-1,2,3-triazol-2-yl)imidazo[1,2-a]pyridin-3-yl)methyl)benzo[d]thiazol-2-yl)amino)cyclohexanol] |  |  | 500 to 2000 | 50 to 200
29 | C=Cc1ccn2c(Cc3ccc4nc(N[C@@H]5CCCC[C@H]5O)sc4c3)cnc2c1 [Example 216, (1R,2R)-2-((6-((7-vinylimidazo[1,2-a]pyridin-3-yl)methyl)benzo[d]thiazol-2-yl)amino)cyclohexanol] |  |  | 50 to 500 | 50 to 200
